The results in this text go back to patent publication EP0900210B1, “ANTIVIRALLY ACTIVE HETEROCYCLIC AZAHEXANE DERIVATIVES” (Novartis AG, priority 1996, dated 1997).

Data set [1] relates to 451/76F strain. The settings on record: 451/76F strain established against Lasinavir; comparison with saquinavir, indinavir, ritonavir. The text has this:
(§1) By way of PCR-supported mutagenesis and cloning, HIV-1 protease mutants are generated that are based on the infectious clone pNL4-3 (freely available via the "NIH AIDS reference and reagent program", the original reference is A. Adachi et al. J. Virol (1986) 59, 284-91 - but it can, of course, be any other HIV clone, or even clinical material, provided that comparability is ensured). […] The cloned fragments are, for example, only 500 base pairs in length, all of the remainder being unchanged. By using mutations in always the same clone, direct comparability is ensured, which would not be the case in a direct comparison of clinical samples or of different HIV clones. […] That system is used as a transient DNA transfection system for tests: • 1) in order to identify possible cross-resistances of protease variants to several protease inhibitors; and • 2) in order to establish the potency and resistance profile of novel inhibitor candidates.
(§2) Instead of the strains mentioned, there may be used any human T4-positive cells, such as the HeLa T4 cells, deposited under that name by Richard Axel and Paul Maddon in "NIH AIDS reference and reagent program" and obtainable via that source.

In data set [2] the test system is 46I/47V/50V (VX478). Description: Transient DNA transfection assay in HeLaT4 cells, other resistant strains. It is filed as cell-based, HIV-1. Conditions: 10nM; strains e.g. 46I/47V/50V (VX478); not quantified.
Text: as §1, §2

Data set [3] concerns HIV-1 (infectious clone pNL4-3). Description: Transient DNA transfection assay in HeLaT4 cells, in vitro potency. The class given is cell-based. Conditions: Human immunodeficiency virus 1, HeLaT4.
Text: as §1, §2

The subject of data set [4] is HIV-1/MN. As to the kind of experiment: Protection of MT-2 cells against HIV infection (reverse transcriptase activity in supernatant). It is filed as cell-based. The settings on record: Human immunodeficiency virus 1, MT2, 96 h; read-out: ED90 (the source's name).
Method: For this test, MT-2-cells infected with HIV-1/MN are used. MT-2-cells have been transformed with HTLV-1 (a virus causing leukaemia) and a continuous producer thereof; they are therefore especially sensitive to the cytopathogenic effect of HIV. MT-2-cells can be obtained via the AIDS Research and Reference Reagent Program, Division of AIDS, NIAID, NIH from Dr. Douglas Richman (see J. Biol. Chem. 263, 5870-5875 (1988) and also Science 229, 563-566 1985)). The MT-2-cells are cultured in RPMI 1640-medium (Gibco, Scotland; RPMI comprises an amino acid mixture without glutamine) supplemented with 10% heat-inactivated foetal calf serum, glutamine and standard antibiotics. In all cases the cells, and also the virus stock solution used for the infection (HIV-1/MN), are free of mycoplasms. […] The titre of the HIV-1/MN virus stock solution (determined by titration onto MT-2-cells) is 4.2 x 10^5 TCID50/ml (TCID50 = Tissue Culture Infective Dose = dose that infects 50 % of the MT-2-cells). […] Prior to the test, 0.1 % (v/v) [alpha-^32P]dTTP is added to aliquots of the solution in order to establish a radioactivity of 10 µCi/ml.
After mixing, the plate is incubated for 2 hours at 37°C. […] The radioactivity on the filters is measured in a Matrix Packard 96-well counter (Packard, Zürich, Switzerland). […]
Data set [5] addresses T1, HIV-1-protease (Human immunodeficiency virus type 1 group M subtype B, UniProt P04585).
T1 construct: made in house
As to the kind of experiment: Inhibition of HIV-1-protease with icosapeptide substrate […] (HPLC). The class given is biochemical. The settings on record: icosapeptide […] 122 µM, 20 mM MES pH 6.0, one hour at 37°C; read-out: IC50. How it is done:
The inhibitory action of the compounds of formula I on the proteolytic activity of HIV-1-protease can be shown, for example, according to known procedures (see A. D. Richards et al., J. Biol. Chem. 265(14), 7733-7736 (1990)). In that method the inhibition of the action of HIV-1-protease (preparation: see S. Billich et al., J. Biol. Chem. 263(34), 17905-17908 (1990)) is measured in the presence of the icosapeptide […] (a synthetic substrate of HIV-1-protease, prepared by peptide synthesis in accordance with known procedures (see J. Schneider et al., Cell 54, 363-368 (1988)), which contains as substrate analogue one of the cleavage sites of the gag-precursor protein (natural substrate of HIV-1-protease). That substrate and its cleavage products are analysed by high performance liquid chromatography (HPLC).
The test compound is dissolved in dimethyl sulfoxide. The enzymatic test is carried out by adding suitable dilutions of the inhibitor in 20 mM β-morpholinoethanesulfonic acid (MES) buffer pH 6.0 to the test mixture. That mixture consists of the above-mentioned icosapeptide (122 µM) in 20 mM MES-buffer pH 6.0. 100 µl are used per test batch. The reaction is started by the addition of […] of HIV-1-protease solution and is stopped after one hour's incubation at 37°C by the addition of 10 µl of 0.3M HClO4. After centrifugation of the sample at 10 000 x g for 5 minutes, 20 µl of the resulting supernatant are applied to a 125 x 4.6 mm Nucleosil® C18-5m-HPLC column (reversed-phase material supplied by Macherey & Nagel, Düren, FRG, based on silica gel that has been charged with C18alkyl chains). The uncleaved icosapeptide and its cleavage products are eluted from the column by means of the following gradient: 100 % eluant 1 → 50 % eluant 1 + 50 % eluant 2 (eluant 1: 10 % acetonitrile, 90 % H2O, 0.1 % trifluoroacetic acid (TFA); eluant 2: 75 % acetonitrile, 25 % H2O, 0.08 % TFA) for 15 minutes, throughflow rate 1 ml/min. The quantification of the eluted peptide fragments is carried out by measuring the peak height of the cleavage product at 215 nm.
Using the test system described above with the icosapeptide […], the IC50 values given below are obtained for the following Examples: […]

Data set [6] can be described thus: Pharmacokinetics: plasma level in mice after oral administration. It is filed as in vivo, female BALB/c mice. The settings on record: mouse, oral administration of 120 mg/kg. How it is done: The blood is centrifuged (12 000 x g, 5 min) and the plasma removed.
The flow rate is 1 ml/min.

pIC50: −log10 of the molar value.

As a reminder, the IC90 is the concentration at which the effect reaches the 90% level. Lower therefore signals an effect from little substance. One may read the pIC50 as −log10 of the IC50, conventionally taken in molar units. Take `COC(=O)N[C@H](C(=O)N[C@@H](Cc1ccccc1)[C@@H](O)CN(Cc1ccc(-c2ccccn2)cc1)NC(=O)[C@@H](NC(=O)OC)C(C)(C)C)C(C)(C)C` [Example 46, 1-[4-(Pyridin-2-yl)-phenyl]-4(S)-hydroxy-5(S)-2,5-bis[N-(N-methoxycarbonyl-(L)-tert-leucyl)amino]-6-phenyl-2-azahexane]: in data set [1], the “activity against a resistant variant” value was “comparable with saquinavir and better than that of indinavir”. In addition, in data set [2], the “activity compared with other strains” value was “more potent (not quantified) than that of saquinavir, ritonavir and indinavir”. Also, the IC90 in data set [3] was under 30 nM. In data set [4], the EC90 worked out at 3 nM. In data set [5], the negative logarithm of the IC50 (pIC50) was 7.59. Further, the concentration at 0.5 h in data set [6] (30 min after administration) turned out to be 21.8 µM. The molecule further registered a concentration at 1.5 h in data set [6] (90 min after administration) of 31.8 µM.
Consider `COC(=O)N[C@H](C(=O)N[C@@H](Cc1ccccc1)[C@@H](O)CN(Cc1ccc(-c2nccs2)cc1)NC(=O)[C@@H](NC(=O)OC)C(C)(C)C)C(C)C` [Example 17, 1-[4-(Thiazol-2-yl)-phenyl]-4(S)-hydroxy-2-N-(N-methoxycarbonyl-(L)-tert-leucyl)amino-5(S)-N-(N-methoxycarbonyl-(L)-valyl)amino-6-phenyl-2-azahexane], for which, in data set [5], the pIC50 was 7.74.
With `CC[C@H](C)[C@H](NC(=O)OC)C(=O)N[C@@H](Cc1ccccc1)[C@@H](O)CN(Cc1ccc(-c2cncs2)cc1)NC(=O)[C@H](CSC)NC(=O)OC` [Example 15, 1-[4-(Thiazol-5-yl)-phenyl]-4(S)-hydroxy-2-N-(N-methoxycarbonyl-(L)-S-methylcysteinyl)amino-5(S)-N-(N-methoxycarbonyl-(L)-iso-leucyl)amino-6-phenyl-2-azahexane], the pIC50 in data set [5] was 7.30.
Turning to `CCOC(=O)N[C@H](C(=O)N[C@@H](Cc1ccccc1)[C@@H](O)CN(Cc1ccc(-c2ccccn2)cc1)NC(=O)[C@@H](NC(=O)OCC)C(C)C)C(C)C` [Example 38, 1-[4-(Pyridin-2-yl)-phenyl]-4(S)-hydroxy-5(S)-2,5-bis[N-(N-ethoxycarbonyl-(L)-valyl)amino]-6-phenyl-2-azahexane], the pIC50 in data set [5] was 7.07.
As for `CC[C@H](C)[C@H](NC(=O)OC)C(=O)NN(Cc1ccc(-c2cncs2)cc1)C[C@H](O)[C@H](Cc1ccccc1)NC(=O)[C@@H](NC(=O)OC)C(C)(C)C` [Example 4, 1-[4-(Thiazol-5-yl)-phenyl]-4(S)-hydroxy-2-N-(N-methoxycarbonyl-(L)-iso-leucyl)amino-5(S)-N-(N-methoxycarbonyl-(L)-tert-leucyl)amino-6-phenyl-2-azahexane], the pIC50 in data set [5] was 7.42.
For the molecule `CC[C@H](C)[C@H](NC(=O)OC)C(=O)N[C@@H](Cc1ccccc1)[C@@H](O)CN(Cc1ccc(-c2cncs2)cc1)NC(=O)[C@@H](NC(=O)OC)[C@@H](C)CC` [Example 13, 1-[4-(Thiazol-5-yl)-phenyl]-4(S)-hydroxy-5(S)-2,5-bis[N-(N-methoxycarbonyl-(L)-iso-leucyl)amino]-6-phenyl-2-azahexane], the pIC50 in data set [5] was 7.49.
For `CC[C@H](C)[C@H](NC(=O)OC)C(=O)N[C@@H](Cc1ccccc1)[C@@H](O)CN(Cc1ccc(-c2cncs2)cc1)NC(=O)[C@@H](NC(=O)OC)C(C)(C)C` [Example 11, 1-[4-(Thiazol-5-yl)-phenyl]-4(S)-hydroxy-2-N-(N-methoxycarbonyl-(L)-tert-leucyl)amino-5(S)-N-(N-methoxycarbonyl-(L)-iso-leucyl)amino-6-phenyl-2-azahexane], the negative-log IC50 (pIC50) in data set [5] was 7.43.
For the molecule `CC[C@H](C)[C@H](NC(=O)OC)C(=O)N[C@@H](Cc1ccccc1)[C@@H](O)CN(Cc1ccc(-c2nccs2)cc1)NC(=O)[C@H](CSC)NC(=O)OC` [Example 24, 1-[4-(Thiazol-2-yl)-phenyl]-4(S)-hydroxy-2-N-(N-methoxycarbonyl-(L)-S-methylcysteinyl)amino-5(S)-N-(N-methoxycarbonyl-(L)-iso-leucyl)amino-6-phenyl-2-azahexane], the pIC50 in data set [5] is 7.30.
`COC(=O)N[C@H](C(=O)N[C@@H](Cc1ccccc1)[C@@H](O)CN(Cc1ccc(-c2cccnc2)cc1)NC(=O)[C@@H](NC(=O)OC)C(C)C)C(C)C` [Example 39, 1-[4-(Pyridin-3-yl)-phenyl]-4(S)-hydroxy-5(S)-2,5-bis[N-(N-methoxycarbonyl-(L)-valyl)amino]-6-phenyl-2-azahexane]: in data set [5], the pIC50 was 7.92.
The same measure, in the same setting: as for `CC[C@H](C)[C@H](NC(=O)OC)C(=O)N[C@@H](Cc1ccccc1)[C@@H](O)CN(Cc1ccc(-c2cnccn2)cc1)NC(=O)[C@@H](NC(=O)OC)[C@@H](C)CC` [Example 43, 1-[4-(Pyrazin-2-yl)-phenyl]-4(S)-hydroxy-5(S)-2,5-bis[N-(N-methoxycarbonyl-(L)-iso-leucyl)amino]-6-phenyl-2-azahexane], the figure is 7.43; as for `CC[C@H](C)[C@H](NC(=O)OC)C(=O)N[C@@H](Cc1ccccc1)[C@@H](O)CN(Cc1ccc(-c2nccs2)cc1)NC(=O)[C@@H](NC(=O)OC)C(C)(C)C` [Example 21, 1-[4-(Thiazol-2-yl)-phenyl]-4(S)-hydroxy-2-N-(N-methoxycarbonyl-(L)-tert-leucyl)amino-5(S)-N-(N-methoxycarbonyl-(L)-iso-leucyl)amino-6-phenyl-2-azahexane], 7.37.
